Experiments:
Solubility in MPK = format: physicochemical; settings: solvent MPK

## C=CC(=O)OCCCCCCOc1ccc(C(=O)Oc2ccc(OC(=O)c3ccc(OCCCCCCOC(=O)C=C)cc3)c(C(=O)OCCCCCCCCOc3ccc(-c4ccc(C#N)cc4)cc3)c2)cc1
other
  melting point: 72 °C
Solubility in MPK
  Solubility in MPK: 7.2%

## C=CC(=O)OCCCCCCOc1ccc(C(=O)Oc2ccc(OC(=O)c3ccc(OCCCCCCOC(=O)C=C)cc3)c(C(=O)OCCOCCOc3ccc(-c4ccc(C#N)cc4)cc3)c2)cc1
other
  melting point: 54 °C
Solubility in MPK
  Solubility in MPK: 33.2%
